Results taken from patent publication US4309559A, “Sulphonamides useful as pesticides” (FBC Limited, priority 1977, dated 1982).

How the values were obtained:
Assay type in all cases: in vivo
[1] = tested on: Barley; experiment: Surface spray (II), barley; conditions: 21 days, 0=no effect, 100=complete suppression
Description: (§1) Each of the compounds listed below was formulated as: […]
(§2) (II) An aqueous suspension together with 1000 ppm of the wetting agent Lissapol NX. The surfaces of an additional set of pans with seeds already sown were then sprayed with 2.8 or 1.4 kg/ha in 450 liters/hectare, and the pans kept in the controlled environment room for 21 days.
(§3) The plants were then visually assessed for any growth regulatory or herbicidal effects. All differences from an untreated control were scored on a scale from 0-100, where 0 signifies no effect and 100 signifies complete suppression.
(§4) The results are shown in the following table where I stands for soil incorporation and II for surface spray.

[2] = tested on: Barnyardgrass (Echinochloa crus-galli); experiment: Post-emergence foliar spray of monocotyledons, barnyardgrass; conditions: foliar spray 2.8 kg/ha, 14 days, 0=no effect, 100=complete kill
Procedure: (§5) Seeds of the monocotyledon species listed below were sown in anodised aluminium pans, 19 cm long×9.5 cm wide×5.0 cm deep, containing John Innes I potting compost. They were then watered and placed in a controlled environment room (22° C.; 65-85% relative humidity; 14 hours per day artificial illumination at 17,000 lux). 14 days after sowing, the seedlings were given a foliar spray of the compound of Example 44, formulated as an aqueous suspension together with 2000 ppm of the wetting agent Lissapol NX. The dosage rate was adjusted to be 2.8 kg active ingredient in 450 liters per hectare. After a further 14 days in the controlled environment room, the plants were visually assessed for any growth regulatory or herbicidal effect. All differences from an untreated control were scored on a scale from 0-100 where 0 signifies no effect and 100 signifies complete kill.
(§6) The compounds listed below were tested according to the procedure of Example 66 but including rice (Oryza sativa) as an additional test species.

[3] = tested on: Barley (Hordeum vulgare); experiment: Post-emergence foliar spray of monocotyledons, barley; conditions: foliar spray 2.8 kg/ha, 14 days, 0=no effect, 100=complete kill
Procedure: as §5, §6

[4] = tested on: Cotton; experiment: Surface spray (II), cotton; conditions: 21 days, 0=no effect, 100=complete suppression
Description: as §1, §2, §3, §4

[5] = tested on: Barnyard Grass; experiment: Soil incorporation (I), barnyard grass; conditions: 21 days, 0=no effect, 100=complete suppression
Description: as §1
(§7) (I) an attaclay/sand dust and incorporated in John Innes I potting compost at a rate equivalent to 6.5 and 3.25 parts per million weight/volume of active ingredient to soil and placed in anodised aluminium pans, 19 cm long×9.5 cm wide×5.0 cm high. This is approximately equivalent to a surface application of 2.8 and 1.4 kg active ingredient per hectare cultivated to a depth of 5 cm. Seeds of the species listed below were sown in the treated soil, one species per pan, watered and placed in a controlled environment room (22° C.; 65-85% relative humidity and 14 hours artificial illumination at 17,000 lux) for 21 days.
as §3, §4

[6] = tested on: Carrot; experiment: Surface spray (II), carrot; conditions: 21 days, 0=no effect, 100=complete suppression
Description: as §1, §2, §3, §4

[7] = tested on: Barley; experiment: Soil incorporation (I), barley; conditions: 21 days, 0=no effect, 100=complete suppression
Description: as §1, §7, §3, §4

[8] = tested on: Wheat; experiment: Surface spray (II), wheat; conditions: 21 days, 0=no effect, 100=complete suppression
Description: as §1, §2, §3, §4

[9] = tested on: Rice; experiment: Surface spray (II), rice; conditions: 21 days, 0=no effect, 100=complete suppression
Description: as §1, §2, §3, §4

[10] = tested on: Tomato; experiment: Soil incorporation (I), tomato; conditions: 21 days, 0=no effect, 100=complete suppression
Description: as §1, §7, §3, §4

[11] = tested on: Tomato; experiment: Surface spray (II), tomato; conditions: 21 days, 0=no effect, 100=complete suppression
Description: as §1, §2, §3, §4

[12] = tested on: rice (Oryza sativa); experiment: Post-emergence foliar spray of monocotyledons, rice; conditions: foliar spray 2.8 kg/ha, 14 days, 0=no effect, 100=complete kill
Procedure: as §5, §6

[13] = tested on: Rice; experiment: Soil incorporation (I), rice; conditions: 21 days, 0=no effect, 100=complete suppression
Description: as §1, §7, §3, §4

[14] = tested on: Barnyard Grass; experiment: Surface spray (II), barnyard grass; conditions: 21 days, 0=no effect, 100=complete suppression
Description: as §1, §2, §3, §4

[15] = tested on: Carrot; experiment: Soil incorporation (I), carrot; conditions: 21 days, 0=no effect, 100=complete suppression
Description: as §1, §7, §3, §4

[16] = tested on: Cotton; experiment: Soil incorporation (I), cotton; conditions: 21 days, 0=no effect, 100=complete suppression
Description: as §1, §7, §3, §4

[17] = tested on: Wheat; experiment: Soil incorporation (I), wheat; conditions: 21 days, 0=no effect, 100=complete suppression
Description: as §1, §7, §3, §4

[18] = tested on: Wheat (Triticum aestivum); experiment: Post-emergence foliar spray of monocotyledons, wheat; conditions: foliar spray 2.8 kg/ha, 14 days, 0=no effect, 100=complete kill
Procedure: as §5, §6

SMILES | growth regulatory or herbicidal effect score ([1]; row 3.25 ppm (1.4 kg/ha)) | growth regulatory or herbicidal effect score ([1]; row 6.5 ppm (2.8 kg/ha)) | growth regulatory or herbicidal effect score [2] | growth regulatory or herbicidal effect score [3] | growth regulatory or herbicidal effect score ([4]; row 3.25 ppm (1.4 kg/ha)) | growth regulatory or herbicidal effect score ([4]; row 6.5 ppm (2.8 kg/ha)) | growth regulatory or herbicidal effect score ([5]; I soil incorporation 3.25 ppm) | growth regulatory or herbicidal effect score ([5]; I soil incorporation 6.5 ppm) | growth regulatory or herbicidal effect score ([7]; I soil incorporation 3.25 ppm) | growth regulatory or herbicidal effect score ([7]; I soil incorporation 6.5 ppm) | growth regulatory or herbicidal effect score ([8]; row 3.25 ppm (1.4 kg/ha)) | growth regulatory or herbicidal effect score ([8]; row 6.5 ppm (2.8 kg/ha)) | growth regulatory or herbicidal effect score ([9]; row 3.25 ppm (1.4 kg/ha)) | growth regulatory or herbicidal effect score ([9]; row 6.5 ppm (2.8 kg/ha)) | growth regulatory or herbicidal effect score ([10]; I soil incorporation 3.25 ppm) | growth regulatory or herbicidal effect score ([10]; I soil incorporation 6.5 ppm) | growth regulatory or herbicidal effect score ([11]; row 3.25 ppm (1.4 kg/ha)) | growth regulatory or herbicidal effect score ([11]; row 6.5 ppm (2.8 kg/ha)) | growth regulatory or herbicidal effect score [12] | growth regulatory or herbicidal effect score ([13]; I soil incorporation 3.25 ppm) | other results
CCS(=O)(=O)N(CC#N)c1ccc(Cl)c(Cl)c1 [Example 137] | 0 | 0 | 80 | 0 | 0 | 0 | 90 | 90 | 0 | 0 | 0 | 0 | 0 | 0 | 0 | 0 | 0 | 0 | 0 | 0 | growth regulatory or herbicidal effect score ([6]; row 3.25 ppm (1.4 kg/ha)): 0; growth regulatory or herbicidal effect score ([6]; row 6.5 ppm (2.8 kg/ha)): 0; growth regulatory or herbicidal effect score ([13]; I soil incorporation 6.5 ppm): 0; growth regulatory or herbicidal effect score ([14]; row 3.25 ppm (1.4 kg/ha)): 90; growth regulatory or herbicidal effect score ([14]; row 6.5 ppm (2.8 kg/ha)): 100; growth regulatory or herbicidal effect score ([15]; I soil incorporation 3.25 ppm): 0; growth regulatory or herbicidal effect score ([15]; I soil incorporation 6.5 ppm): 0; growth regulatory or herbicidal effect score ([16]; I soil incorporation 3.25 ppm): 0; growth regulatory or herbicidal effect score ([16]; I soil incorporation 6.5 ppm): 0; growth regulatory or herbicidal effect score ([17]; I soil incorporation 3.25 ppm): 0; growth regulatory or herbicidal effect score ([17]; I soil incorporation 6.5 ppm): 0; growth regulatory or herbicidal effect score [18]: 0
Cc1ccc(N(CC(N)=S)S(C)(=O)=O)cc1Cl [Example 150] | 0 | 0 | 80 | 0 | 0 | 0 | 60 | 60 | 0 | 0 | 0 | 0 | 0 | 0 | 0 | 0 | 0 | 0 | 0 | 0 | growth regulatory or herbicidal effect score ([13]; I soil incorporation 6.5 ppm): 0; growth regulatory or herbicidal effect score ([14]; row 3.25 ppm (1.4 kg/ha)): 50; growth regulatory or herbicidal effect score ([14]; row 6.5 ppm (2.8 kg/ha)): 70; growth regulatory or herbicidal effect score ([16]; I soil incorporation 3.25 ppm): 0; growth regulatory or herbicidal effect score ([16]; I soil incorporation 6.5 ppm): 0; growth regulatory or herbicidal effect score ([17]; I soil incorporation 3.25 ppm): 0; growth regulatory or herbicidal effect score ([17]; I soil incorporation 6.5 ppm): 0; growth regulatory or herbicidal effect score [18]: 0
CCS(=O)(=O)N(CC(N)=S)c1ccc(Cl)c(Cl)c1 [Example 156] | 0 | 0 | 90 | 0 | 0 | 0 | 70 | 90 | 0 | 0 | 0 | 0 | 0 | 0 | 0 | 0 | 0 | 0 | 0 | 0 | growth regulatory or herbicidal effect score ([13]; I soil incorporation 6.5 ppm): 0; growth regulatory or herbicidal effect score ([14]; row 3.25 ppm (1.4 kg/ha)): 80; growth regulatory or herbicidal effect score ([14]; row 6.5 ppm (2.8 kg/ha)): 100; growth regulatory or herbicidal effect score ([16]; I soil incorporation 3.25 ppm): 0; growth regulatory or herbicidal effect score ([16]; I soil incorporation 6.5 ppm): 0; growth regulatory or herbicidal effect score ([17]; I soil incorporation 3.25 ppm): 0; growth regulatory or herbicidal effect score ([17]; I soil incorporation 6.5 ppm): 0; growth regulatory or herbicidal effect score [18]: 0
